Assay results as given in patent US6472348B1, “Pyridone derivatives and herbicides” (Kumiai Chemical Industry Co., Ltd., priority 1996, dated 2002).

Key:
Format in all cases: in vivo
Digitaria ciliaris (Di) = experiment: Test Example 2: herbicidal effects by upland field soil treatment; details: 100 g of the active ingredient per 10 ares;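 further: grade of growth control; 5 = at least 90%; 4 = 70 to 90%; 3 = 50 to 70%; 2 = 30 to 50%; 1 = 10 to 30%; 0 = under 10%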
Text: (§1) (Test on Herbicidal Effects by Upland Field Soil Treatment)

barnyardgrass (Ec) [1] = experiment: as above; details: 100 g of the active ingredient per 10 ares
Text: as §1

[2] = system: common lambsquarters (Ch); experiment: as above; details: 100 g of the active ingredient per 10 ares
Text: as §1

pale smartweed (Po) [3] = experiment: as above; details: 100 g of the active ingredient per 10 ares
Text: as §1

rice flatsedge (Ci) [4] = experiment: as above; details: 100 g of the active ingredient per 10 ares
Text: as §1

slender amaranth (Am) [5] = experiment: as above; details: 100 g of the active ingredient per 10 ares
Text: as §1

Diaitaria ciliaris (Di) = experiment: Test Example 3: herbicidal effects by upland field foliage treatment; set-up: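 grade of growth control; 5 = at least 90%; 4 = 70 to 90%; 3 = 50 to 70%; 2 = 30 to 50%; 1 = 10 to 30%; 0 = under 10%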; details: 100 g active ingredient per 10 ares, evaluated 14th day after treatment
Method: (§2) (Test on Herbicidal Effects by Upland Field Foliage Treatment)
(§3) In a plastic pot (surface area: 120 cm^2) filled with sand, barnyardgrass (Ec), Diaitaria ciliaris (Di), pale smartweed (Po), slender amaranth (Am), common lambsquarters (Ch) and rice flatsedge (Ci) were sown and covered with soil and were cultured in a green house for 2 weeks. […] The plants were then cultured in the green house, and the evaluation of the herbicidal effects was conducted on the 14th day after the treatment in accordance with the standards as identified in Table 47. Symbol—represents “not tested”.

barnyardgrass (Ec) [6] = experiment: as above; set-up: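 grade of growth control; 5 = at least 90%; 4 = 70 to 90%; 3 = 50 to 70%; 2 = 30 to 50%; 1 = 10 to 30%; 0 = under 10%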; details: 100 g active ingredient per 10 ares, evaluated 14th day after treatment
Method: as §2, §3

[7] = system: common lambsquarters (Ch); experiment: as above; set-up: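 grade of growth control; 5 = at least 90%; 4 = 70 to 90%; 3 = 50 to 70%; 2 = 30 to 50%; 1 = 10 to 30%; 0 = under 10%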; details: 100 g active ingredient per 10 ares, evaluated 14th day after treatment
Method: as §2, §3

pale smartweed (Po) [8] = experiment: as above; set-up: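 grade of growth control; 5 = at least 90%; 4 = 70 to 90%; 3 = 50 to 70%; 2 = 30 to 50%; 1 = 10 to 30%; 0 = under 10%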; details: 100 g active ingredient per 10 ares, evaluated 14th day after treatment
Method: as §2, §3

rice flatsedge (Ci) [9] = experiment: as above; set-up: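 grade of growth control; 5 = at least 90%; 4 = 70 to 90%; 3 = 50 to 70%; 2 = 30 to 50%; 1 = 10 to 30%; 0 = under 10%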; details: 100 g active ingredient per 10 ares, evaluated 14th day after treatment
Method: as §2, §3

slender amaranth (Am) [10] = experiment: as above; set-up: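 grade of growth control; 5 = at least 90%; 4 = 70 to 90%; 3 = 50 to 70%; 2 = 30 to 50%; 1 = 10 to 30%; 0 = under 10%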; details: 100 g active ingredient per 10 ares, evaluated 14th day after treatment
Method: as §2, §3

barnyardgrass (Ec) [11] = experiment: Test Example 1: herbicidal effects by paddy field soil treatment; details: 100 g of the active ingredient per 10 ares, 21st day after the application, index 0-5 of Table 47;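 further: grade of growth control; 5 = at least 90%; 4 = 70 to 90%; 3 = 50 to 70%; 2 = 30 to 50%; 1 = 10 to 30%; 0 = under 10%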
Method: (§4) (Test on Herbicidal Effects by Paddy Field Soil Treatment)
(§5) In a plastic pot (surface area: 100 cm^2) filled with paddy field soil, barnyardgrass (Ec), monochoria (Mo) and bulrush (Sc) were sown after puddling and leveling, and flooded to a water depth of 3 cm. […] The dose was 100 g of the active ingredient per 10 ares. The plants were then cultured in a green house, and the evaluation of the herbicidal effects was conducted on the 21st day after the application in accordance with the standards as identified in Table 47.

bulrush (Sc) = experiment: as above; details: 100 g of the active ingredient per 10 ares, 21st day after the application, index 0-5 of Table 47;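 further: grade of growth control; 5 = at least 90%; 4 = 70 to 90%; 3 = 50 to 70%; 2 = 30 to 50%; 1 = 10 to 30%; 0 = under 10%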
Method: as §4, §5

monochoria (Mo) = experiment: as above; details: 100 g of the active ingredient per 10 ares, 21st day after the application, index 0-5 of Table 47;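 further: grade of growth control; 5 = at least 90%; 4 = 70 to 90%; 3 = 50 to 70%; 2 = 30 to 50%; 1 = 10 to 30%; 0 = under 10%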
Method: as §4, §5

[12] = evaluated on the 21st day after application
[13] = 21st day after the application, index 0-5 of Table 47

SMILES	Herbicidal effects Di (Digitaria ciliaris (Di); [12])	Herbicidal effects Ec (barnyardgrass (Ec) [1]; [12])	Herbicidal effects Ch [2, 12]	Herbicidal effects Po (pale smartweed (Po) [3]; [12])	Herbicidal effects Ci (rice flatsedge (Ci) [4]; [12])	Herbicidal effects Am (slender amaranth (Am) [5]; [12])	Herbicidal effects Di (Diaitaria ciliaris (Di))	Herbicidal effects Ec (barnyardgrass (Ec) [6])	Herbicidal effects Ch [7]	Herbicidal effects Po (pale smartweed (Po) [8])	Herbicidal effects Ci (rice flatsedge (Ci) [9])	Herbicidal effects Am (slender amaranth (Am) [10])	Herbicidal effects Ec (barnyardgrass (Ec) [11])	Herbicidal effects Sc (bulrush (Sc))	Herbicidal effects Mo (monochoria (Mo))	further results
CCCN1C(=O)COc2cc(F)c(-c3ccc(C(F)(F)F)n(C)c3=O)cc21 [Compound 2-10]	5	5	5	5	5	5	5	5	5	5	5	5				
Cn1c(C(F)(F)F)ccc(-c2cc3c(cc2F)OCC(=O)N3CC=CCl)c1=O [Compound 2-14]	5	5	5	5	5	5	5	5	5	5	5	5				
C#CCN1C(=O)CSc2cc(F)c(-c3ccc(C(F)(F)F)n(C)c3=O)cc21 [Compound 2-21]	5	5	5	5	5	5							5	5	5	
Cn1c(C(F)(F)F)ccc(-c2cc3c(cc2Cl)OCC(=O)N3)c1=O [Compound 2-27]	5	5	5	5	5	5							5	5	5	
COCc1cc2c(-c3ccc(C(F)(F)F)n(C)c3=O)c(Cl)cc(Cl)c2o1 [Compound 4-13]	5	5	5	5	5	5							5	5	5	
CCOCc1cc2c(-c3ccc(C(F)(F)F)n(C)c3=O)c(Cl)cc(Cl)c2o1 [Compound 4-30]	5	5	5	5	5	5							5	5	5	
CCCOC(C)c1cc2c(-c3ccc(C(F)(F)F)n(C)c3=O)c(F)cc(Cl)c2o1 (stereo not drawn) [Compound 4-37]	5	5	5	5	5	5	5	5	5	5	5	5				
Cn1cc(-c2ccc(Cl)cc2F)c(=O)cc1C(F)(F)F [Compound 6-2]	5	4	5	5	5	5	5	4	5	5	5	5				
Cn1c(C(F)(F)F)ccc(-c2ccc(Cl)cc2)c1=O [Compound No. 1-1]													5	5	5	Herbicidal effects Di (Digitaria ciliaris (Di); [13]): 5; Herbicidal effects Ec (barnyardgrass (Ec) [1]; [13]): 5; Herbicidal effects Ch [2, 13]: 5; Herbicidal effects Po (pale smartweed (Po) [3]; [13]): 5; Herbicidal effects Ci (rice flatsedge (Ci) [4]; [13]): 5; Herbicidal effects Am (slender amaranth (Am) [5]; [13]): 5
C#CCOc1cc(-c2c(C#N)cc(C(F)(F)F)n(C)c2=O)c(F)cc1Cl [Compound No. 11-6, 3-[2-fluoro-4-chloro-5-(2-propionyloxy)phenyl]-4-cyano-1-methyl-6-trifluoromethyl-2(1H)-pyridone]	5	5	5	5	5	5							5	5	5	
Cc1ccc(-c2ccc(Cl)cc2)c(=O)[nH]1 [comparative agent, reference compound]	0	0	0	0	0	0										
